Measured values: article PMC6628435, “Chemical Synthesis, Proper Folding, Nav Channel Selectivity Profile and Analgesic Properties of the Spider Peptide Phlotoxin 1” (Toxins, 2019)
Bridge positions count the residues as written; N and C are the ends. Peptide text beside a SMILES is read from it.

Legend:
[1] = tested on: Nav1.1/β1; test: Two-electrode voltage-clamp on Xenopus laevis oocytes expressing Nav1.1/β1; assay type: cell-based; conditions: 1 µM; voltage of maximum sodium influx, holding −90 mV; oocytes TEVC; n ≥ 3
Source text: (§1) Using the two-electrode voltage-clamp technique on Xenopus laevis oocytes, the effect of PhlTx1 was also compared on eight different cloned vertebrate Nav channels co-expressed with the β1 subunit (Nav1.1-1.8/β1) and on the neuronal insect Nav channel, para, co-expressed with the tipE subunit (Figure 3 and Figure 4). […] Normalized current-voltage relationships (I-V curve) of Nav1.2/β1 and Nav1.3/β1 channels seemed to be shifted towards more negative potentials when PhlTx1 was applied, but shifts were not statistically significant […] (Figure 4). The activation phase of the other studied Nav channel subtypes was not affected. No obvious alteration in channel availability was observed, except a 5-mV negative shift for Nav1.3/β1, although that was also non-significant (p > 0.05).
(§2) Figure 4 1 µM of PhlTx1 was tested on Nav1.1/β1, Nav1.2/β1, Nav1.3/β1, Nav1.4/β1, Nav1.5/β1, Nav1.6/β1, Nav1.8/β1 and para/tipE (n ≥ 3). Left column: current traces were evoked by a 50-ms depolarization to the voltage of maximum sodium influx, depending on the Nav studied, from a holding potential of −90 mV. At 1 µM PhlTx1, all studied Nav channels, except Nav1.4/β1, were blocked for about 10% (no toxin: *). The current of Nav1.4/β1 was reduced for about 35 ± 5%. Middle column: normalized I-V curves reveal no significant shift of the activation voltage (p > 0.05). […]

[2] = tested on: Nav1.2/β1; test: Two-electrode voltage-clamp on Xenopus laevis oocytes expressing Nav1.2/β1; assay type: cell-based; conditions: 1 µM; voltage of maximum sodium influx, holding −90 mV; oocytes TEVC; n ≥ 3
Source text: as §1, §2

CC(C)C[C@@H]1NC(=O)[C@@H](NC(=O)[C@H](C)N)CSSC[C@@H]2NC(=O)[C@@H]3CSSC[C@@H](C(=O)N[C@@H](CCCNC(=N)N)C(=O)N[C@@H](Cc4ccc(O)cc4)C(=O)N[C@@H](CCCCN)C(=O)N[C@@H](CC(C)C)C(=O)N[C@@H](Cc4ccccc4)C(=O)O)NC(=O)[C@H](Cc4c[nH]c5ccccc45)NC(=O)[C@@H]4CCCN4C(=O)[C@H](Cc4ccc(O)cc4)NC(=O)[C@H](CCCCN)NC(=O)[C@H](Cc4c[nH]c5ccccc45)NC(=O)[C@H](CCC(=O)O)NC(=O)[C@H](CSSC[C@H](NC(=O)[C@H](CO)NC(=O)[C@H](CC(=O)O)NC(=O)[C@H](Cc4c[nH]c5ccccc45)NC(=O)[C@H](CCC(N)=O)NC(=O)CNC1=O)C(=O)N[C@@H](CC(=O)O)C(=O)N1CCC[C@H]1C(=O)N[C@@H](CCCCN)C(=O)N[C@@H](C)C(=O)N[C@@H](CO)C(=O)N[C@@H](CCCCN)C(=O)N3)NC(=O)[C@H](C)NC(=O)[C@H](Cc1ccc(O)cc1)NC(=O)[C@H](CC(N)=O)NC(=O)[C@@H]1CCCN1C2=O [PhlTx1, Phlotoxin-1] (H-ACLGQWDSCDPKASKCCPNYACEWKYPWCRYKLF-OH; disulfide 2-17, 9-22, 16-29; N-terminus and C-terminus assumed)
block of sodium current [1]: about 10% | block of sodium current [2]: about 10%
